In US4874773A, “3-Aminocarbonyl-1,4-dihydropyridine-5-carboxylic acid compounds, and pharmaceutical composition containing the same” (priority 1985, dated 1989):
“Also recorded” adds a separate entry of the source. Where two headings read alike, the source gives them in different places.

How the values were obtained:
[1] = test system: isolated aorta; assay: Experiment 3 Relaxing activity on the isolated aorta (30 mM KCl contracted); design: species or system Japanese white rabbit; settings: for EC50: Oryctolagus cuniculus, read-out: EC50 (concentration for 50% relaxation); for relaxing / vasodilating activity on isolated aorta (in words): Table 8, comparison with nifedipine and nicardipine hydrochloride, etc. where stated
Protocol: Japanese white rabbit (weighing 2.3-2.7 kg) was sacrificed by bleeding from common carotid artery. Immediately, the aorta was isolated and cut into a sprial strip. The strip preparation was vertically suspended under a resting tension of 2.0 g in a tissue bath containing 20 ml of modified Ringer solution while bubbling with a mixture of 95% O2 +5% CO2 by connecting one end of the strip to a lever of the above-mentioned FD pick up. The aortic strip was contracted with 30 mM KCl. When the contraction became constant, the test compound was accumulatively administered, and the relaxing effect was measured. After the final treatment, 10^-4T M papaverine was administered and the maximum relaxation obtained thereby was taken as 100%. In comparison with the maximum relaxation obtained by papaverine, the rate of relaxation by the test compounds was evaluated, and the concentration of the test compounds for obtaining 50% relaxation (EC50) was calculated.
The test compound was dissolved in ethanol, and the solution was diluted in 100 to 1×10^4 folds with a nutrient solution, and the diluted solution was administered.

[2] = Experiment 4-1 Acute toxicity; settings: rat, in vivo; oral, male rats, 5 week age, 7 days
Text: Wistar male rats (5 week age, weighing 105-135 g) were used. The compounds of Example Nos. 2, 3 and 7 were each orally administered to the animals in the form of a suspension in 0.5% methyl cellulose solution.

[3] = test system: isolated heart; assay: Experiment 2-1 Activity on isolated heart; design: species or system Japanese white rabbit; settings: for activation at 3 µg/heart / inhibition at 3 µg/heart, 3 µg/heart / inhibition at 3 µg/heart: Oryctolagus cuniculus, 3 μg/heart; for activation at 3 µg/heart: read-out: Increase of coronary perfusion; for inhibition at 3 µg/heart, 3 µg/heart: read-out: Inhibitory rate of systole; for inhibition at 3 µg/heart: read-out: Reducing rate of heart pulse
Method in brief: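 Isolated heart preparation from Japanese white rabbits (2.2–2.5 kg) anaesthetised with nembutal 20 mg/kg i.v. Compound was given after 90 min of stabilisation. Perfusion volume was measured by drop counting, and heart rate and contractility via a force-displacement transducer.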

[4] = test system: Spontaneously hypertensive male rats; assay: Experiment 1-1 Hypotensive activity (oral, conscious spontaneously hypertensive rats); format: in vivo, rat; settings: for Maximum hypotension: mean blood pressure; for hypotensive activity (in words): Table 4, comparison with nifedipine and nicardipine hydrochloride where stated
[5] = test system: Spontaneously hypertensive male rats; assay: Experiment 1-2 Hypotensive activity (oral, 8 hours); format: in vivo, rat; settings: for Maximum hypotension / Recovering time / Time for recovering 1/2 of max. hypotension / Time until reaching to max. hypotension: 1 mg/kg oral; for hypotensive activity (in words): Table 5, comparison with nifedipine and nicardipine hydrochloride where stated
Protocol: Spontaneously hypertensive male rats (13-15 week age, one group: 3 rats) were used. […] The rats were fixed in a Howlman cage without fasting, and the femoral arterial pressure was measured by a direct method without anesthesia with a cannula which was previously inserted into the femoral artery of the animal, via a pressure transducer (MPU-0.5, manufactured by Nippon Koden K.K.). The test compounds were orally administered in the form of a suspension in 0.5% methyl cellulose solution in a dose of 10 mg/kg (in some compounds, 3 mg/kg). In the control group, only 0.5% methyl cellulose solution was administered likewise. The blood pressure was measured for 5 hours after the administration of test compounds.
The hypotensive activity was measured in the same manner as described in Experiment 1-1 except that the rats were used in 3-5 rats per each group, and the test compounds were administered in a dose of 1 mg/kg (some compounds, 3 mg/kg), and the blood pressure was measured for 8 hours after the administration of test compounds.

[6] = Experiment 4-2 Acute toxicity, rats; settings: rat, in vivo, po, 4 week age, 7 days
Text: (§1) Wistar male and female rats (4 week age) and ddy male and female mice (4 week age) were used. The compounds of Example Nos. 82 and 83 were each orally administered to […].

[7] = Experiment 4-2 Acute toxicity, mice; settings: mouse, in vivo, po, 4 week age, 7 days
Text: as §1

[8] = test system: isolated heart; assay: Experiment 2-2 Activity onto the isolated heart (with duration); design: species or system Japanese white rabbit; settings: for Coronary perfusion Duration: time until perfusion volume returned to initial level; for activation at 3 µg/heart / inhibition at 3 µg/heart: Oryctolagus cuniculus; for activation at 3 µg/heart: read-out: Coronary perfusion Increase
Protocol: Japanese white rabbit (weighing 2.2-2.5 kg) was anesthetized by introvenous injection of nembutal (20 mg/kg) and then sacrificed by bleeding from common carotid artery. […] There were measured the perfusion volume with a drop-counting meter (ET-600G type, manufactured by Nippon Koden K.K.) and the heart pulse and the contractility via a force-displacement transducer (FD pick up, SB-IT type, manufactured by Nippon Koden K.K.) (for measuring heart pulse, an instant pulse meter (AT-601G type, minufactured by Nippon Koden K.K.) being further used).
The test compounds were dissolved in ethanol, and the solution was diluted in 100-fold with purified water, and the diluted solution was administered in an amount of 0.1 ml/heart (i.e. 3 μg/heart).
The activity was measured in the same manner as described in Experiment 2-1 except that in some test compounds, the dose was in 1 μg/heart. Besides, the duration of the activity was evaluated by counting the time until the coronary perfusion volume became to the initial level before the administration of the test compound.

[9] = 30 mM KCl contraction, maximum relaxation by papaverine = 100%

| Compound | EC50 [1, 9] [nM] | relaxing / vasodilating activity on isolated aorta (in words) [1] | LD50 at 168 h [2] [mg/kg] | activation at 3 µg/heart [3] [%] | inhibition at 3 µg/heart, 3 µg/heart [3] [%] | inhibition at 3 µg/heart [3] [%] | inhibitions on the heart pulse and contactility (in words) ([3]; Table 6) | Recovering time ([4]; 3 mg/kg oral) [h] | Time for recovering 1/2 of max. hypotension ([4]; 3 mg/kg oral) [h] | Time until reaching to max. hypotension ([4]; 3 mg/kg oral) [min] | Maximum hypotension ([4]; 3 mg/kg oral) [mmHg] | hypotensive activity (in words) [4] | Recovering time ([4]; 10 mg/kg oral) [h] | Time for recovering 1/2 of max. hypotension ([4]; 10 mg/kg oral) [h] | Time until reaching to max. hypotension ([4]; 10 mg/kg oral) [min] | Maximum hypotension ([4]; 10 mg/kg oral) [mmHg] | Maximum hypotension [5] [mmHg] | Recovering time [5] [h] | Time for recovering 1/2 of max. hypotension [5] [h] | Time until reaching to max. hypotension [5] [min] | other results |
| --- | --- | --- | --- | --- | --- | --- | --- | --- | --- | --- | --- | --- | --- | --- | --- | --- | --- | --- | --- | --- | --- |
| CCCCCCCCOC(=O)C1=C(C)NC(C)=C(C(=O)NC(C)C)C1c1ccccc1[N+](=O)[O-] (stereo not drawn) [Example 2, n-octyl 2,6-dimethyl-3-isopropylaminocarbonyl-4-(o-nitrophenyl)-1,4-dihydropyridine-5-carboxylate] | 300 | somewhat weak vasodilating activity | 10 to 100 | 17 | 50 | 25 | moderate inhibitions on the heart pulse and contactility | > 5.0 | 5.0 | 30 | 55 | the same or more potent activity with longer duration; also recorded: potent hypotensive activity | – | – | – | – | – | – | – | – | – |
| CCCCCCCCCOC(=O)C1=C(C)NC(C)=C(C(=O)NC(C)C)C1c1ccccc1[N+](=O)[O-] (stereo not drawn) [Example 3, n-nonyl 2,6-dimethyl-3-isopropylaminocarbonyl-4-(o-nitrophenyl)-1,4-dihydropyridine-5-carboxylate] | 180 | – | 500 to 1000 | 40 | 55 | 20 | – | > 5.0 | > 5.0 | 30 | 60 | – | > 5.0 | > 5.0 | 30 | 91 | – | – | – | – | – |
| CCCCCCOC(=O)C1=C(C)NC(C)=C(C(=O)NC(C)C)C1c1ccccc1[N+](=O)[O-] (stereo not drawn) [Example 7, n-hexyl 2,6-dimethyl-3-isopropylaminocarbonyl-4-(o-nitrophenyl)-1,4-dihydropyridine-5-carboxylate] | 130 | somewhat weak vasodilating activity | > 1000 | 45 | 30 | 25 | moderate inhibitions on the heart pulse and contactility | – | – | – | – | the same or more potent activity with longer duration; also recorded: potent hypotensive activity | > 5.0 | 5.0 | 30 | 45 | – | – | – | – | coronary vasodilating activity (in words) ([3]; Table 6, comparison with nifedipine and nicardipine hydrochloride, etc.): the same or more potent coronary vasodilating activity with longer duration |
| CCCCCCCCOC(=O)C1=C(C)NC(C)=C(C(=O)NC2CC2)C1c1ccccc1[N+](=O)[O-] (stereo not drawn) [Example 82, n-octyl 2,6-dimethyl-3-cyclopropylaminocarbonyl-4-(o-nitrophenyl)-1,4-dihydropyridine-5-carboxylate] | 440 | somewhat weak vasodilating activity | – | – | – | – | – | – | – | – | – | – | – | – | – | – | 48 | > 8.0 | > 8.0 | 180 | hypotensive activity (in words) [5]: the same or more potent hypotensive activity with longer duration; also recorded: potent hypotensive activity; LD50 at 168 h ([6]; female rats): 50 mg/kg; LD50 at 168 h ([6]; male rats): 320 mg/kg; LD50 at 168 h ([7]; female mice): 1140 mg/kg; LD50 at 168 h ([7]; male mice): 1280 mg/kg; Coronary perfusion Duration ([8]; 3 μg/heart): > 120 min; activation at 3 µg/heart ([8]; 3 μg/heart): 39%; inhibition at 3 µg/heart ([8]; 3 μg/heart, read-out: Inhibitory rate of systole): 30%; inhibition at 3 µg/heart ([8]; 3 μg/heart, read-out: Reducing rate of heart pulse): 25% |
| CCCCCCCCCOC(=O)C1=C(C)NC(C)=C(C(=O)NC2CC2)C1c1ccccc1[N+](=O)[O-] (stereo not drawn) [Example 83, n-nonyl 2,6-dimethyl-3-cyclopropylaminocarbonyl-4-(o-nitrophenyl)-1,4-dihydropyridine-5-carboxylate] | – | somewhat weak vasodilating activity | – | – | – | – | – | – | – | – | – | – | – | – | – | – | 61 | > 8.0 | > 8.0 | 180 | hypotensive activity (in words) [5]: the same or more potent hypotensive activity with longer duration; also recorded: potent hypotensive activity; EC50 [1]: 290 nM; LD50 at 168 h ([6]; female rats): ≤ 10 mg/kg; LD50 at 168 h ([6]; male rats): 100 to 500 mg/kg; Coronary perfusion Duration ([8]; 3 μg/heart): > 120 min; activation at 3 µg/heart [8]: 42%; inhibition at 3 µg/heart ([8]; read-out: Inhibitory rate of systole): 50%; inhibition at 3 µg/heart ([8]; read-out: Reducing rate of heart pulse): 20% |
